Data reported in US20110262546A1 (priority 2008, published 2011).

Assays:
PrP^Sc in ScGT1 cells = PrP^Sc in ScGT1 cells (Mus musculus, UniProt P04925); assay: cell-based
PrP^Sc in ScN2a cells = PrP^Sc in ScN2a cells (Mus musculus, UniProt P04925); assay: cell-based
ScN2a cells = conditions: mouse
ScGT1 cells = conditions: for % cell viability ± SEM ScGT1: mouse

Chain of PrP^Sc in ScN2a cells (P04925 23-230 limits assumed): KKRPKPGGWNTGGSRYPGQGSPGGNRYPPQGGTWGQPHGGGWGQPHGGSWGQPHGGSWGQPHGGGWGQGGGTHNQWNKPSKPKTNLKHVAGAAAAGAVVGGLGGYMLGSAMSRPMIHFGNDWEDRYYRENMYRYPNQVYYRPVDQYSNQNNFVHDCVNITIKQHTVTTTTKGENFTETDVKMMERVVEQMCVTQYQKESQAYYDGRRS
Chain of PrP^Sc in ScGT1 cells (P04925 23-230 limits assumed): as above

Row | Molecule | EC50 (PrP^Sc in ScGT1 cells) [µM] | EC50 (PrP^Sc in ScN2a cells) [µM] | % cell viability ± SEM ScN2a (ScN2a cells) [%] | % cell viability ± SEM ScGT1 (ScGT1 cells) [%] | cytotoxicity to the neurons (ScGT1 cells) | dead cells (ScGT1 cells)
1 | CN(C)CCCN1c2ccccc2CCc2ccccc21 [Imipramime, imipramine] | 6.2 ± 0.4 | 5.5 ± 0.5 | 100 ± 5 | 100 ± 7 | – | –
2 | CCN(CC)CCCC(C)Nc1c2ccc(Cl)cc2nc2ccc(OC)cc12 (centres unmarked) [Quinacrine, quinacrine] | – | – | 100 ± 2 | 100 ± 4 | – | –
3 | sodium polystyrenesulfonate [PSS] | – | – | – | – | weak cytotoxicity | around 20%
